Data taken from PMC12396409, “Screening and hit evaluation of a microbial metabolite library against the pathogenic Plasmodium falciparum and Toxoplasma gondii parasites” (International Journal for Parasitology: Drugs and Drug …, 2025).
Read-outs that look alike come from different tables or passages of the source.

Columns and labels:
[1] = tested on: T. gondii RH strain (RH-Tub-eYFP) tachyzoites; experiment: microbe, parasite or virus in culture; type: cell-based, Toxoplasma gondii; conditions: for percent parasite growth at 2 µg/mL: Toxoplasma gondii
[2] = tested on: P. falciparum 3D7 parasites; experiment: P. falciparum growth inhibition assay, 2-cycle (120 h treatment), delayed-death screen and dose-response; type: cell-based, Plasmodium falciparum; conditions: for activity at 2 µg/mL: Plasmodium falciparum, 3D7
[3] = tested on: P. falciparum 3D7 parasites; experiment: P. falciparum growth inhibition assay, 1-cycle (72 h treatment), SYBR DNA staining (library screen at 2 μg/mL and dose-response); type: cell-based, Plasmodium falciparum; conditions: for activity at 2 µg/mL: Plasmodium falciparum, 3D7
[4] = T. gondii, 72 h, screen at 2 μg/mL, replicate 1
[5] = T. gondii, 72 h, screen at 2 μg/mL, replicate 2
[6] = P. falciparum, 120 h, screen at 2 μg/mL, replicate 1
[7] = P. falciparum, 120 h, screen at 2 μg/mL, replicate 2
[8] = P. falciparum, 72 h, screen at 2 μg/mL, replicate 1
[9] = P. falciparum, 72 h, screen at 2 μg/mL, replicate 2
[10] = library screen at 2 μg/mL, 72 h, % growth, replicate 1
[11] = library screen at 2 μg/mL, 72 h, % growth, replicate 2
[12] = T. gondii, 72 h, parasite screen 2 μg/mL, % growth, replicate 1
[13] = T. gondii, 72 h, parasite screen 2 μg/mL, % growth, replicate 2
[14] = P. falciparum, 120 h, parasite screen 2 μg/mL, % growth, replicate 1
[15] = P. falciparum, 120 h, parasite screen 2 μg/mL, % growth, replicate 2
[16] = P. falciparum, 72 h, parasite screen 2 μg/mL, % growth, replicate 1
[17] = P. falciparum, 72 h, parasite screen 2 μg/mL, % growth, replicate 2

Compound: CCC1C=C(C)CC(C)CC(OC)C2OC(O)(C(=O)C(=O)N3CCCCC3C(=O)OC(C(C)=CC3CCC(Cl)C(OC)C3)C(C)C(O)CC1=O)C(C)CC2OC (stereo not drawn) [BIA-P1385]
- Tg_72h_%Growth_Rep1 ([1]; T. gondii, 72 h, parasite screen at 2 μg/mL, % growth, replicate 1): 65.99%
- Tg_72h_%Growth_Rep2 ([1]; T. gondii, 72 h, parasite screen at 2 μg/mL, % growth, replicate 2): 84.21%
- Pf_120h_%Growth_Rep1 ([2]; P. falciparum 3D7, 120 h, parasite screen at 2 μg/mL, % growth, replicate 1): 11.40%
- Pf_120h_%Growth_Rep2 ([2]; P. falciparum 3D7, 120 h, parasite screen at 2 μg/mL, % growth, replicate 2): 13.77%
- Pf_72h_%Growth_Rep1 ([3]; P. falciparum 3D7, 72 h, parasite screen at 2 μg/mL, % growth, replicate 1): 6.43%
- Pf_72h_%Growth_Rep2 ([3]; P. falciparum 3D7, 72 h, parasite screen at 2 μg/mL, % growth, replicate 2): 7.66%

Compound: CC(=O)N[C@H](COC(C)=O)[C@H](O)c1ccc([N+](=O)[O-])cc1 [Corynecin IV]
- Tg_72h_%Growth_Rep1 [1, 4]: 146.78%
- Tg_72h_%Growth_Rep2 [1, 5]: 106.28%
- Pf_120h_%Growth_Rep1 [2, 6]: 80.18%
- Pf_120h_%Growth_Rep2 [2, 7]: 96.02%
- Pf_72h_%Growth_Rep1 [3, 8]: 87.87%
- Pf_72h_%Growth_Rep2 [3, 9]: 87.15%

Compound: COCCC[C@H]1O[C@@](O)([C@H](C)C2CC(OC)C(O)/C=C(C)/C=C(C)/C=C(/C)C(O[C@H]3O[C@H](C)[C@@H](OC)[C@H](O)[C@H]3O)C(C)/C=C(C)/C=C(OC)\C=C(/C)C(=O)O2)[C@H](OC)[C@@H](O)[C@]1(C)O[C@H]1C[C@H](O)[C@H](O[C@H]2C[C@@](C)(O)[C@H](O)[C@@H](C)O2)[C@@H](C)O1 (stereo partly drawn) [Amycolatopsin B]
- Tg_72h_%Growth_Rep1 [1, 10]: 0.29%
- Tg_72h_%Growth_Rep2 [1, 11]: 0.85%
- Pf_120h_%Growth_Rep1 ([2]; library screen at 2 μg/mL, 120 h, % growth, replicate 1): 16.58%
- Pf_120h_%Growth_Rep2 ([2]; library screen at 2 μg/mL, 120 h, % growth, replicate 2): 9.62%
- Pf_72h_%Growth_Rep1 [3, 10]: 44.61%
- Pf_72h_%Growth_Rep2 [3, 11]: 41.71%

Compound: CC(=O)OC1CCC(C)C2C1C=C(C)C1C(C)=CCCC(C)=CC3(C)C=C(C)C(C)CC34OC(=O)C(=C(O)C12C)C4=O (stereo not drawn) [Tetromycin A]
- Tg_72h_%Growth_Rep1 [1, 4]: 141.34%
- Tg_72h_%Growth_Rep2 [1, 5]: 89.51%
- Pf_120h_%Growth_Rep1 [2, 6]: 96.09%
- Pf_120h_%Growth_Rep2 [2, 7]: 91.15%
- Pf_72h_%Growth_Rep1 [3, 8]: 87.03%
- Pf_72h_%Growth_Rep2 [3, 9]: 84.23%

Compound: COc1cc(C)c(C(=O)Oc2cc(C)c(C(=O)O)c(O)c2C)c(OC)c1C [Diffractaic acid]
- percent parasite growth at 2 µg/mL ([1]; 72 h, library screen at 2 μg/mL, 72 h, % growth, replicate 1, read-out: Tg_72h_%Growth_Rep1): 133%
- percent parasite growth at 2 µg/mL ([1]; 72 h, library screen at 2 μg/mL, 72 h, % growth, replicate 2, read-out: Tg_72h_%Growth_Rep2): 97.5%
- activity at 2 µg/mL ([2]; library screen at 2 μg/mL, 120 h, % growth, replicate 1, read-out: Pf_120h_%Growth_Rep1): 91.2%
- activity at 2 µg/mL ([2]; library screen at 2 μg/mL, 120 h, % growth, replicate 2, read-out: Pf_120h_%Growth_Rep2): 81.2%
- activity at 2 µg/mL ([3]; library screen at 2 μg/mL, 72 h, % growth, replicate 1, read-out: Pf_72h_%Growth_Rep1): 80.1%
- activity at 2 µg/mL ([3]; library screen at 2 μg/mL, 72 h, % growth, replicate 2, read-out: Pf_72h_%Growth_Rep2): 79.9%

Compound: CCC1C=CC2C=C(C)C(OC3CC(C)(O)C(NC(C)=O)C(C)O3)C(C)C=C(C)C3C=CC4C(OC5CC(O)C(OC6CC(OC7CCC(O)C(C)O7)C(OC7CC(O)C(O)C(C)O7)C(C)O6)C(C)O5)C(C)CC(C)C4C3(C)C(O)=C3C(=O)OC2(C1)C3=O (stereo not drawn) [Saccharocarcin A]
- Tg_72h_%Growth_Rep1 [1, 12]: -0.34%
- Tg_72h_%Growth_Rep2 [1, 13]: 2.07%
- Pf_120h_%Growth_Rep1 [2, 14]: 14.27%
- Pf_120h_%Growth_Rep2 [2, 15]: 13.84%
- Pf_72h_%Growth_Rep1 [3, 16]: 25.38%
- Pf_72h_%Growth_Rep2 [3, 17]: 12.51%

Compound: Diacetoxyscirpenol
- Tg_72h_%Growth_Rep1 [1]: -1.25%
- Tg_72h_%Growth_Rep2 [1]: -0.43%
- Pf_120h_%Growth_Rep1 [2]: 13.51%
- Pf_120h_%Growth_Rep2 [2]: -0.91%
- Pf_72h_%Growth_Rep1 [3]: 9.42%
- Pf_72h_%Growth_Rep2 [3]: -2.86%

Compound: O=c1c2cccn2c(=O)c2cccn12 [Pyrocoll]
- Tg_72h_%Growth_Rep1 [1, 12]: 94.37%
- Tg_72h_%Growth_Rep2 [1, 13]: 83.97%
- Pf_120h_%Growth_Rep1 [2, 14]: 85.16%
- Pf_120h_%Growth_Rep2 [2, 15]: 138.60%
- Pf_72h_%Growth_Rep1 [3, 16]: 84.60%
- Pf_72h_%Growth_Rep2 [3, 17]: 82.90%

Compound: CC[C@H](C)C(=O)[C@@H](C)C1=CC(=O)C2=C(O[C@]3(C)CC[C@H]4O[C@@H](C(C)(C)O)CC[C@]4(C)[C@H]3C2)C1=O [Cochlioquinone B]
- percent parasite growth at 2 µg/mL ([1]; 72 h, T. gondii, 72 h, screen at 2 μg/mL, replicate 1, read-out: Tg_72h_%Growth_Rep1): 110%
- percent parasite growth at 2 µg/mL ([1]; 72 h, T. gondii, 72 h, screen at 2 μg/mL, replicate 2, read-out: Tg_72h_%Growth_Rep2): 83.8%
- activity at 2 µg/mL ([2]; P. falciparum, 120 h, screen at 2 μg/mL, replicate 1, read-out: Pf_120h_%Growth_Rep1): 47%
- activity at 2 µg/mL ([2]; P. falciparum, 120 h, screen at 2 μg/mL, replicate 2, read-out: Pf_120h_%Growth_Rep2): 44.2%
- activity at 2 µg/mL ([3]; P. falciparum, 72 h, screen at 2 μg/mL, replicate 1, read-out: Pf_72h_%Growth_Rep1): 61.4%
- activity at 2 µg/mL ([3]; P. falciparum, 72 h, screen at 2 μg/mL, replicate 2, read-out: Pf_72h_%Growth_Rep2): 52.9%
